Reference: patent US20220041641A1, “QUATERNARY AMMONIUM SALTS AS INHIBITORS OF TRIMETHYLAMINE PRODUCTION” (Senda Biosciences, Inc., priority 2018, published 2022)
Structures can show the parent of a compound that is named as a salt.

The compounds below were run against CutC from Proteus mirabilis (Proteus mirabilis, UniProt B4EYG1) (assay: Cell-based assay for TMA production from a native producer (P. mirabilis)). Conditions: d9-TMA from 1 mM d9-choline, 5 h, 37° C.; value 10 given when no fit or % TMA remaining at 10 μM higher than 15%; read-out: Average IC50 Whole cell P. mirabilis.
From the text: In each bacterium, CutC was modified into its activated form by a cognate activating enzyme, CutD (protein EDU36696.1 for C. sporogenes; protein WP_004249185.1 for P. mirabilis). […] Trimethylamine may subsequently be converted by human enzymes such as flavin monooxygenase 3 to trimethylamine N-oxide, which might be associated with negative health consequences in humans.
A compound's ability to inhibit CutC from Proteus mirabilis and C. sporogenes from converting choline into trimethylamine was tested in cells as described. A BHI blood plate was inoculated with a frozen stock of Proteus mirabilis or Clostridium sporogenes under anaerobic conditions. A single colony was isolated from the plate and inoculated into 5 mL BHI supplemented with 1 mM choline under anaerobic conditions. The liquid cultures were grown overnight at 37° C.
To prepare each sample, 300 μL of the saturated culture was then inoculated into a 30 mL dilution blank under anaerobic conditions. 1 mM (trimethyl-d9)-choline and a sufficient amount of a compound to obtain a final concentration of 10 μM were added to the inoculated dilution blank. […] The mixture was incubated at 37° C. for 5 h. […] After centrifugation, the samples were analyzed by LCMS to determine the amount of d9-TMA produced.

CutC from Proteus mirabilis, sequence (B4EYG1 entry or part of it): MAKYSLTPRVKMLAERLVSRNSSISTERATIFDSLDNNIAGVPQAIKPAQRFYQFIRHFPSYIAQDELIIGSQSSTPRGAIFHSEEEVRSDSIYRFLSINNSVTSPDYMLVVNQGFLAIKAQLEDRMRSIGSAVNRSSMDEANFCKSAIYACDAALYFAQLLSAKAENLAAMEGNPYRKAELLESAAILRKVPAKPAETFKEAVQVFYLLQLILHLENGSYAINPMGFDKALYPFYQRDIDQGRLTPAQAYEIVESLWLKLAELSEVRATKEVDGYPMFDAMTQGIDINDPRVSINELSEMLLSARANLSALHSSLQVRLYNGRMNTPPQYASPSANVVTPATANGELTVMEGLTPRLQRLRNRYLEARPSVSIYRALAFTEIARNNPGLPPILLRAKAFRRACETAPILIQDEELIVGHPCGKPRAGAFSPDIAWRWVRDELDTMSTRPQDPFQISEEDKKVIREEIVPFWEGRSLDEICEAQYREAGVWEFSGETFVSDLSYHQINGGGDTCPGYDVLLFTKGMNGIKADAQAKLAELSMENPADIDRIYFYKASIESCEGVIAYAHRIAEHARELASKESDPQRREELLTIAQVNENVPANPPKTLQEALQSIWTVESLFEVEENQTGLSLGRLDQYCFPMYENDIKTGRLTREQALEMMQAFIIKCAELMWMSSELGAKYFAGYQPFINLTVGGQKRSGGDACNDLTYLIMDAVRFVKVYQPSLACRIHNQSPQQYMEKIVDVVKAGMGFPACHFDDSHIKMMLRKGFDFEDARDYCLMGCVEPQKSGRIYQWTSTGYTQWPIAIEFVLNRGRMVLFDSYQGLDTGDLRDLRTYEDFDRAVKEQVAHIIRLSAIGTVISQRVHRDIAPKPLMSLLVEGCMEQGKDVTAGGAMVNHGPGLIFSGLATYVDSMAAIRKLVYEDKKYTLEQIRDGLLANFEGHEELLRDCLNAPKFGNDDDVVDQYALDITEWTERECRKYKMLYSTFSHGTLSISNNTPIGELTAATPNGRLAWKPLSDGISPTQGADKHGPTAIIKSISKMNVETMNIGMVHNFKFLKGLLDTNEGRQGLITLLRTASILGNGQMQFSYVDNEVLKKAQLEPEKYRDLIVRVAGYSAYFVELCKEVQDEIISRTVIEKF
CutC from Proteus mirabilis, sequence (B4EYG0 entry or part of it, further chain): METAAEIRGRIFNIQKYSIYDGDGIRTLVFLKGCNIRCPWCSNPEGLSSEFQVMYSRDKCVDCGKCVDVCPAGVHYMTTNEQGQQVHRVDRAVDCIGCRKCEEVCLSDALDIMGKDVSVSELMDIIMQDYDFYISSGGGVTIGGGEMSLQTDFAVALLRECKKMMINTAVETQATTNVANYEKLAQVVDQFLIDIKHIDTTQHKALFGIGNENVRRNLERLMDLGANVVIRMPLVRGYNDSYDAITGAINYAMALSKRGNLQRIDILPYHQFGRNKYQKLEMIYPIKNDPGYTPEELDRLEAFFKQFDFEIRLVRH

Point of comparison: `C#CC[N+](C)(C)CC#N` [Compound 168, (cyanomethyl)dimethyl(prop-2-yn-1-yl)azanium Bromide], IC50 870 nM. Against it:
- C#CC[N+]1(CC(=O)O)CCCCC1 [Compound 160, 1-(carboxymethyl)-1-(prop-2-yn-1-yl)piperidin-1-ium bromide] — higher, ≥ 10000 nM
- C#CC[N+](C)(C)CC(=C)Br [Compound 217, (2-bromoprop-2-en-1-yl)dimethyl(prop-2-yn-1-yl)azanium] — within 1.5-fold, 771 nM
- C#CC[N+](C)(C)CC [Compound 206, ethyldimethyl(prop-2-yn-1-yl)azanium Iodide] — 13-fold lower, 69 nM
- C#CC[N+](C)(C)Cc1nnn[nH]1 [Compound 177, dimethyl(prop-2-yn-1-yl)[(1H-1,2,3,4-tetrazol-5-yl)methyl]azanium] — 8.7-fold higher, 7570 nM
- C#CC[N+](C)(C)CCNC(=O)OC(C)(C)C [Compound 192, tert-butyl N-{2-[dimethyl(prop-2-yn-1-yl)azaniumyl]ethyl}carbamate Bromide] — higher, > 10000 nM
- C[N+](C)(CCO)CC1COC1 [Compound 184, (2-hydroxyethyl)dimethyl[(oxetan-3-yl)methyl]azanium Bromide] — higher, > 10000 nM
- C#CC[N+](C)(C)CCO[C@@H]1O[C@H](CO)[C@@H](O)[C@H](O)[C@H]1O [Compound 106, N,N-dimethyl-N-(2-(((3R,4S,5S,6R)-3,4,5-trihydroxy-6-(hydroxymethyl)tetrahydro-2H-pyran-2-yl)oxy)ethyl)prop-2-yn-1-aminium 2,2,2-trifluoroacetate] — higher, ≥ 10000 nM
- C#CC[C@@H](C(=O)O)[N+](C)(C)C [Compound 152, (S)-1-carboxy-N,N,N-trimethylbut-3-yn-1-aminium Iodide] — higher, ≥ 10000 nM
- C#CC[N+]1(CC#C)CC[C@@H](O)C1 [Compound 200, (3R)-3-hydroxy-1,1-bis(prop-2-yn-1-yl)pyrrolidin-1-ium] — 3.1-fold higher, 2740 nM
- C#CC[N+](C)(C)C[C@@H](C)C(=O)O [Compound 162, (R)—N-(2-carboxypropyl)-N,N-dimethylprop-2-yn-1-aminium Chloride] — 3-fold lower, 290 nM
- C#CC[N+](C)(C)CCN [Compound 183, (2-aminoethyl)dimethyl(prop-2-yn-1-yl)azanium] — higher, > 10000 nM
- C#CC[N+]1(CC#C)CCCN1 [Compound 201, 1,1-bis(prop-2-yn-1-yl)pyrazolidin-1-ium Bromide] — higher, > 10000 nM
- COC[N+](C)(C)CCO [Compound 212, (2-hydroxyethyl)(methoxymethyl)dimethylazanium trifluoroacetate] — 2.3-fold higher, 1990 nM
- CSC[N+](C)(C)CCO [Compound 195, (2-hydroxyethyl)dimethyl[(methylsulfanyl)methyl]azanium] — higher, > 10000 nM
- COCC[N+](C)(C)CF [Compound 228, (fluoromethyl)(2-methoxyethyl)dimethylazanium Iodide] — higher, > 10000 nM
- C#CC[N+](C)(C)CCC(=O)NS(C)(=O)=O [Compound 215, [2-(methanesulfonylcarbamoyl)ethyl]dimethyl(prop-2-yn-1-yl)azanium] — 2.1-fold lower, 409 nM
- C#CC[N+](C)(C)CSC [Compound 196, dimethyl[(methylsulfanyl)methyl](prop-2-yn-1-yl)azanium] — 8.9-fold higher, 7780 nM
- C#CC[N+](C)(C)CC(=C)C [Compound 208, N,N,2-trimethyl-N-(prop-2-yn-1-yl)prop-2-en-1-aminium 2,2,2-trifluoroacetate] — higher, > 10000 nM
- CC1OC1C[N+](C)(C)C (centres unmarked) [Compound 176, trimethyl[(3-methyloxiran-2-yl)methyl]azanium] — higher, ≥ 10000 nM
- C=C(C[N+](C)(C)C)C(=O)O [Compound 155, 2-carboxy-N,N,N-trimethylprop-2-en-1-aminium Bromide] — 3-fold higher, 2580 nM
- C=C(C[N+](C)(C)CC(=C)C(=O)O)C(=O)O [Compound 156, 2-carboxy-N-(2-carboxyallyl)-N,N-dimethylprop-2-en-1-aminium Bromide] — higher, ≥ 10000 nM
- C#CC[N+](C)(C)CF [Compound 179, (fluoromethyl)dimethyl(prop-2-yn-1-yl)azanium Iodide] — 7.9-fold lower, 110 nM
